The test system of test [1] is MV4:11 human cancer cell lines. Briefly: Anti-proliferative activity, CellTiter-Glo viability assay, 7 day protocol. Format: cell-based. Particulars: Homo sapiens, MV4-11, 168 h, MV4:11 cells, 7 day incubation, read-out: GI50 on cellular proliferation of MV4:11 human cancer cell lines. Summed up: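 MV4:11 cells seeded at 3600 cells/ml and exposed to compounds for 7 days, 0.1% DMSO final. Viability measured by CellTiter-Glo luminescence. GI50 from three biological replicates, each in technical triplicate, given as mean ± S.E.M.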

In the next test the target is WDR5 (Homo sapiens (Human), UniProt P61964). As to the kind of experiment: TR-FRET binding assay (displacement of 10mer-Thr-FAM probe from WDR5). Particulars: read-out: Ki for Inhibition of WDR5 by TR-FRET assay. For orientation: Time-resolved FRET reads energy transfer from a long-lived donor to a nearby acceptor.
[2] abbreviates: TR-FRET, 10mer-Thr-FAM probe, WDR5-His tag 2 nM, pH 7.0.

Usually Ki stands for a dissociation constant, usually derived from enzyme kinetics or from competition with a known ligand.

Structures are written as SMILES. Where two headings read alike, the source gives them in different places.

With `CCn1cc(-c2cc(Cn3ccoc3=N)cc(C(=O)N[C@H](c3ccc(Cl)c(Cl)c3)C3CC3)c2)c(C(F)(F)F)n1` [Example 280, (S)—N-(Cyclopropyl(3,4-dichlorophenyl)methyl)-3-(1-ethyl-3-(trifluoromethyl)-1H-pyrazol-4-yl)-5-((2-iminooxazol-3(2H)-yl)methyl)benzamide], the GI50 in test [1] was under 100 nM. In addition, the Ki at WDR5 (setting [2]) was under 0.1 nM.

Consider `CCn1cc(-c2cc(CN3CCOC3=N)cc(C(=O)N[C@H](c3ccc(Cl)c(Cl)c3)C3CC3)c2)c(C(F)(F)F)n1` [Example 281, (S)—N-(Cyclopropyl(3,4-dichlorophenyl)methyl)-3-(1-ethyl-3-(trifluoromethyl)-1H-pyrazol-4-yl)-5-((2-iminooxazolidin-3-yl)methyl)benzamide], for which the GI50 in test [1] was under 100 nM. In addition, at WDR5 (setting [2]), the inhibitory constant (Ki) is under 0.1 nM.

On to `Cc1cc([C@@H](NC(=O)c2cc(CN3CCOC3=N)cc(-c3ccc(F)cc3C#N)c2)C2CC2)ccc1F` [Example 282, (S)-2′-Cyano-N-(cyclopropyl(4-fluoro-3-methylphenyl)methyl)-4′-fluoro-5-((2-iminooxazolidin-3-yl)methyl)-[1,1′-biphenyl]-3-carboxamide], for which the GI50 in test [1] amounted to 200 nM. For the same molecule, the Ki at WDR5 (setting [2]) stood at 0.21 nM.

Turning to `Cc1cc([C@@H](NC(=O)c2cc(CN3CCOC3=N)cc(-c3ccc(F)cc3C(F)(F)F)c2F)C2CC2)ccc1F` [Example 283, (S)—N-(Cyclopropyl(4-fluoro-3-methylphenyl)methyl)-2,4′-difluoro-5-((2-iminooxazolidin-3-yl)methyl)-2′-(trifluoromethyl)-[1,1′-biphenyl]-3-carboxamide], the GI50 in test [1] turned out to be 120 nM. In addition, at WDR5 (setting [2]), the inhibition constant (Ki) was 0.02 nM.

On to `N=C1OCCN1Cc1cc(C(=O)N[C@H](c2ccc(Cl)c(Cl)c2)C2CC2)cc(-c2ncc(F)cc2C(F)(F)F)c1` [Example 284, (S)—N-(Cyclopropyl(3,4-dichlorophenyl)methyl)-3-(5-fluoro-3-(trifluoromethyl)pyridin-2-yl)-5-((2-iminooxazolidin-3-yl)methyl)benzamide], for which, in test [1], the GI50 came to 270 nM. In addition, the Ki at WDR5 (setting [2]) was 0.11 nM.

With `Cc1cc([C@@H](NC(=O)c2cc(CN3CCOC3=N)cc(-c3ccc(F)cc3C(F)(F)F)c2)C2CC2)ccc1F` [Example 285, (S)—N-(Cyclopropyl(4-fluoro-3-methylphenyl)methyl)-4′-fluoro-5-((2-iminooxazolidin-3-yl)methyl)-2′-(trifluoromethyl)-[1,1′-biphenyl]-3-carboxamide], in test [1], the GI50 was under 100 nM. Besides, at WDR5 (setting [2]), the inhibition constant Ki was under 0.1 nM.

Consider `CC(C)n1cc(-c2cc(CN3CCOC3=N)cc(C(=O)N[C@H](c3ccc(F)c(F)c3)C3CC3)c2)c(C(F)(F)F)n1` [Example 286, (S)—N-(Cyclopropyl(3,4difluorophenyl)methyl)-3-((2-iminooxazolidin-3-yl)methyl)-5-(1-isopropyl-3-(trifluoromethyl)-1H-pyrazol-4-yl)benzamide], for which the GI50 in test [1] was under 100 nM. Moreover, on WDR5 (setting [2]), the Ki was under 0.1 nM.

Take `Cc1cc([C@@H](NC(=O)c2cc(CN3CCOC3=N)cc(-c3cc(C(F)(F)F)nn3C)c2)C2CC2)ccc1F` [Example 287, (S)—N-(Cyclopropyl(4-fluoro-3-methylphenyl)methyl)-3-((2-iminooxazolidin-3-yl)methyl)-5-(1-methyl-3-(trifluoromethyl)-1H-pyrazol-5-yl)benzamide]: the GI50 in test [1] is 100 nM. Besides, the inhibition constant Ki on WDR5 was under 0.1 nM.

On to `Cc1cc([C@@H](NC(=O)c2cc(Cn3ccoc3=N)cc(-c3cn(C(C)C)nc3C(F)(F)F)c2)C2CC2)ccc1F` [Example 291, (S)—N-(Cyclopropyl(4-fluoro-3-methylphenyl)methyl)-3-((2-iminooxazol-3(2H)-yl)methyl)-5-(1-isopropyl-3-(trifluromethyl)-1H-pyrazol-4-yl)benzamide], for which the GI50 in test [1] was under 100 nM. Further, on WDR5 (setting [2]), the inhibition constant Ki is under 0.1 nM.

Consider `CCn1cc(-c2cc(Cn3ccoc3=N)cc(C(=O)NCc3ccc(F)c(C)c3)c2)c(C(F)(F)F)n1` [Example 294, 3-(1-Ethyl-3-(trifluoromethyl)-1H-pyrazol-4-yl)-N-(4-fluoro-3-methylbenzyl)-5-((2-iminooxazol-3(2H)-yl)methyl)benzamide], for which, in test [1], the GI50 was under 100 nM. For the same molecule, the inhibitory constant (Ki) on WDR5 was under 0.1 nM.

`CCn1cc(-c2cc(CN3CCOC3=N)cc(C(=O)NCc3ccc(F)c(C)c3)c2)c(C(F)(F)F)n1` [Example 295, 3-(1-Ethyl-3-(trifluoromethyl)-1H-pyrazol-4-yl)-N-(4-fluoro-3-methylbenzyl)-5-((2-iminooxazolidin-3-yl)methyl)benzamide]: the GI50 in test [1] is under 100 nM. Besides, the Ki on WDR5 is under 0.1 nM.

On to `CCn1cc(-c2cc(Cn3ccoc3=N)cc(C(=O)N[C@H](c3ccc(F)c(Cl)c3)C3CC3)c2)c(C(F)(F)F)n1` [Example 298, (S)—N-((3-Chloro-4-fluorophenyl)(cyclopropyl)methyl)-3-(1-ethyl-3-(trifluoromethyl)-1H-pyrazol-4-yl)-5-((2-iminooxazol-3(2H)-yl)methyl)benzamide], for which the GI50 in test [1] is under 100 nM. Also, the Ki on WDR5 (setting [2]) was under 0.1 nM.

As for `Cc1cc([C@@H](NC(=O)c2cc(Cn3ccoc3=N)cc(-c3cn(C)nc3C(F)(F)F)c2)C2CC2)ncc1F` [Example 299, (S)—N-(Cyclopropyl(5-fluoro-4-methylpyridin-2-yl)methyl)-3-((2-iminooxazol-3(2H)-yl)methyl)-5-(1-methyl-3-(trifluoromethyl)-1H-pyrazol-4-yl)benzamide], in test [1], the GI50 is under 100 nM. Moreover, the inhibitory constant (Ki) at WDR5 (setting [2]) is under 0.1 nM.

As for `Cc1cc([C@@H](NC(=O)c2cc(CN3CCOC3=N)cc(-c3cn(C)nc3C(F)(F)F)c2)C2CC2)ncc1F` [Example 300, (S)—N-(Cyclopropyl(5-fluoro-4-methylpyridin-2-yl)methyl)-3-((2-iminooxazolidin-3-yl)methyl)-5-(1-methyl-3-(trifluoromethyl)-1H-pyrazol-4-yl)benzamide], in test [1], the GI50 was under 100 nM. Besides, the inhibition constant Ki at WDR5 (setting [2]) is under 0.1 nM.

For `N=C1OCCN1Cc1cc(C(=O)N[C@H](c2ccc(Cl)c(F)c2)C2CC2)cc(-c2ccc(F)cc2Cl)c1` [Example 301, (S)-2′-Chloro-N-((4-chloro-3-fluorophenyl)(cyclopropyl)methyl)-4′-fluoro-5-((2-iminooxazolidin-3-yl)methyl)-[1,1′-biphenyl]-3-carboxamide], the GI50 in test [1] is 270 nM. Besides, the Ki on WDR5 (setting [2]) was under 0.1 nM.

For the molecule `CCOc1c(C(=O)N[C@@H](C)c2ccc(F)c(C)c2)cc(CN2CCOC2=N)cc1-c1cn(C)nc1C(F)(F)F` [Example 302, (S)-2-Ethoxy-N-(1-(4-fluoro-3-methylphenyl)ethyl)-5-((2-iminooxazolidin-3-yl)methyl)-3-(1-methyl-3-(trifluoromethyl)-1H-pyrazol-4-yl)benzamide], the GI50 in test [1] was under 100 nM. Moreover, the Ki at WDR5 (setting [2]) was under 0.1 nM.

On to `CCOc1c(C(=O)N[C@H](c2ccc(F)c(C)c2)C2CC2)cc(CN2CCOC2=N)cc1-c1cn(C)nc1C(F)(F)F` [Example 303, (S)—N-(Cyclopropyl(4-fluoro-3-methylphenyl)methyl)-2-ethoxy-5-((2-iminooxazolidin-3-yl)methyl)-3-(1-methyl-3-(trifluoromethyl)-1H-pyrazol-4-yl)benzamide], for which, in test [1], the GI50 was under 100 nM. Further, on WDR5 (setting [2]), the inhibition constant (Ki) was under 0.1 nM.

For the origin of these results see patent US10844044B2 (Vanderbilt University, priority 2018, dated 2020).
